One experiment has as its target TYK2 (JH2 domain) (Homo sapiens (Human), UniProt P29597). Briefly: TYK2 JH2 domain binding assay (DiscoverX KINOMEscan). The settings on record: 11-point 3-fold dilution, duplicate.
Experiment [1] relates to IL12-induced p-STAT4 in human PBMC. The experiment in a line: IL-12 induced pSTAT4 in human PBMC. The class given is cell-based. The settings on record: human PBMC, IL-12 10 ng/ml; read-out: p-STAT4 IC50.
Experiment [2] concerns INFα induced pSTAT3 in human PBMC. The experiment in a line: INFα induced pSTAT3 in human PBMC. The settings on record: human PBMC, INFα 5000 units/ml; read-out: p-STAT3 IC50. The class given is cell-based. On the procedure:
Fresh Human PBMCs were resuspended in RPMI 1640 medium with 10% FBS. Cells were seeded in a round bottom 96-well plate at the concentration of 200,000 cells/well. A 10-point dilution series of test compound (top dose 10 uM, 1:5 dilution) was added to the well using the liquid dispenser (Tecan D300e) and incubated for 1 hour at 37 C. Then human INFα recombinant protein (R&D Systems) was added to the well at the final concentration of 5000 units/ml and incubated for 15 minutes at 37 C. Cell lysates were prepared and analyzed by Phospho STAT3 (Tyr705) cellular kit (Cisbio) or Phospho STAT5 (Tyr693) Kit (Meso Scale Discovery) following manufacturer's protocol.
For calculation of the inhibition rate, the relative pSTAT signal of each well=pSTAT signal of each well−the average pSTAT signal of baseline. The inhibition %=(the average pSTAT signal of INFα treatment wells−the relative of pSTAT signal in each compound containing well)/the average pSTAT signal of INFα treatment wells*100%
The curve was plotted as the inhibition % (y-axis) vs. compounds concentration (x-axis) and was fitted with log(inhibitor) vs. normalized response—Variable slope by GraphPad Prism7.0.

Sequence of TYK2 (JH2 domain) (P29597 589-875): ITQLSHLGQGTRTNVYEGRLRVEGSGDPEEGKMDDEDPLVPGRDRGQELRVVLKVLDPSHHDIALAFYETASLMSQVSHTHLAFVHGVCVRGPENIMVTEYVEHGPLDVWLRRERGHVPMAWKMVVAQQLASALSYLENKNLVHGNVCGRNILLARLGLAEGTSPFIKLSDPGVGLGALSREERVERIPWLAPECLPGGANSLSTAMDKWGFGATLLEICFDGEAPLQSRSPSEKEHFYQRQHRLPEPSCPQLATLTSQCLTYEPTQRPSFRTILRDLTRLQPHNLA

In the case of `CNC(=O)c1nnc(N2CCCC2=O)cc1Nc1cccc(-c2ncn(C)n2)c1OC` [Example 59], at TYK2 (JH2 domain), the Kd lay within 1 to 5 nM. The IC50 in experiment [1] and in experiment [2] was 1000 to 10000 nM each time.
`[2H]C([2H])([2H])NC(=O)c1nnc(N2CCOC2=O)cc1Nc1cccc(-c2ncn(C)n2)c1OC` [Example 60] yielded a Kd at TYK2 (JH2 domain) of 1 to 5 nM. The IC50 in experiment [1] and in experiment [2] was > 10000 nM throughout.
`[2H]C([2H])([2H])NC(=O)c1nnc(N2CCC(C#N)(C3CC3)C2=O)cc1Nc1cccc(-c2ncn(C)n2)c1OC` (stereo not drawn) [Example 61]: at TYK2 (JH2 domain), the Kd fell in the range of 1 to 5 nM. Moreover, the IC50 in experiment [1] and in experiment [2] was 1000 to 10000 nM throughout.
On TYK2 (JH2 domain), `[2H]C([2H])([2H])NC(=O)c1nnc(N2CC(C)(C)C2)cc1Nc1cccc(-c2ncn(C)n2)c1OC` [Example 62] came in with a Kd of 5 to 10 nM. Further, the concentration for half-maximal inhibition (IC50) in experiment [1] and in experiment [2] was 1000 to 10000 nM each time.
Turning to `[2H]C([2H])([2H])NC(=O)c1nnc(-n2ccn(C)c2=O)cc1Nc1cccc(-c2ncn(C)n2)c1OC` [Example 63], at TYK2 (JH2 domain), the Kd was ≤ 1 nM. Besides, the IC50 in experiment [1] and in experiment [2] was 100 to 1000 nM in each case.
Consider `[2H]C([2H])([2H])NC(=O)c1nnc(N2CCC(C)C2=O)cc1Nc1cccc(-c2ncn(C)n2)c1OC` (stereo not drawn) [Example 64], for which the Kd on TYK2 (JH2 domain) was ≤ 1 nM. Besides, the 50% inhibitory concentration (IC50) in experiment [1] and in experiment [2] was 100 to 1000 nM in each case.
Turning to `[2H]C([2H])([2H])NC(=O)c1nnc(N2CCN(CC(F)(F)F)C2=O)cc1Nc1cccc(-c2ncn(C)n2)c1OC` [Example 67], on TYK2 (JH2 domain), the dissociation constant Kd was ≤ 1 nM. Besides, the half-maximal inhibitory concentration (IC50) in experiment [1] is < 100 nM; in experiment [2] it was 100 to 1000 nM.
On to `[2H]C([2H])([2H])NC(=O)c1nnc(N2CCN(CC3CC3)C2=O)cc1Nc1cccc(-c2ncn(C)n2)c1OC` [Example 68], for which the Kd on TYK2 (JH2 domain) was ≤ 1 nM. The concentration for half-maximal inhibition (IC50) in experiment [1] and in experiment [2] was < 100 nM in each case.
As for `[2H]C([2H])([2H])NC(=O)c1nnc(N2CCN(CC#N)C2=O)cc1Nc1cccc(-c2ncn(C)n2)c1OC` [Example 69], the dissociation constant Kd at TYK2 (JH2 domain) was ≤ 1 nM. Moreover, the IC50 in experiment [1] and in experiment [2] was < 100 nM throughout.
Consider `[2H]C([2H])([2H])NC(=O)c1nnc(N2CCN(CC3CCOC3)C2=O)cc1Nc1cccc(-c2ncn(C)n2)c1OC` (stereo not drawn) [Example 71], for which the dissociation constant Kd at TYK2 (JH2 domain) is ≤ 1 nM. For the same molecule, the IC50 in experiment [1] and in experiment [2] was 100 to 1000 nM each time.
Turning to `[2H]C([2H])([2H])NC(=O)c1nnc(N2CCN(CC3(C)COC3)C2=O)cc1Nc1cccc(-c2ncn(C)n2)c1OC` [Example 72], on TYK2 (JH2 domain), the Kd was ≤ 1 nM. Moreover, the 50% inhibitory concentration (IC50) in experiment [1] was < 100 nM; in experiment [2], 100 to 1000 nM.
With `[2H]C([2H])([2H])NC(=O)c1nnc(N2CCN(CC3CCCO3)C2=O)cc1Nc1cccc(-c2ncn(C)n2)c1OC` (stereo not drawn) [Example 74], the Kd on TYK2 (JH2 domain) is ≤ 1 nM. Moreover, the IC50 in experiment [1] and in experiment [2] was < 100 nM in each case.
As for `[2H]C([2H])([2H])NC(=O)c1nnc(N2CCN(c3ccccc3)C2=O)cc1Nc1cccc(-c2ncn(C)n2)c1OC` [Example 77], the equilibrium dissociation constant (Kd) at TYK2 (JH2 domain) fell in the range of 1 to 5 nM. For the same molecule, the IC50 in experiment [1] lay in the range of 100 to 1000 nM; in experiment [2], 1000 to 10000 nM.
For `[2H]C([2H])([2H])NC(=O)c1nnc(N2CCN(C3COC3)C2=O)cc1Nc1cccc(-c2ncn(C)n2)c1OC` [Example 79] the same measures were ≤ 1 nM, 100 to 1000 nM and 100 to 1000 nM.
For `[2H]C([2H])([2H])NC(=O)c1nnc(N2CCN(C3CCOC3)C2=O)cc1Nc1cccc(-c2ncn(C)n2)c1OC` (stereo not drawn) [Example 80] the same measures were ≤ 1 nM, < 100 nM and < 100 nM.
In the same order, the values of `[2H]C([2H])([2H])NC(=O)c1nnc(N2CCN(C(C)C3CC3)C2=O)cc1Nc1cccc(-c2ncn(C)n2)c1OC` (stereo not drawn) [Example 82] are ≤ 1 nM, < 100 nM and < 100 nM.
For `[2H]C([2H])([2H])NC(=O)c1nnc(N2CCN(C(C)C#C)C2=O)cc1Nc1cccc(-c2ncn(C)n2)c1OC` (stereo not drawn) [Example 84], the equilibrium dissociation constant (Kd) on TYK2 (JH2 domain) is ≤ 1 nM. Moreover, the half-maximal inhibitory concentration (IC50) in experiment [1] and in experiment [2] was < 100 nM in each case.

Usually Kd stands for the constant that tells how readily two partners part at equilibrium. High values mean weaker binding, low ones tighter binding. By IC50 is commonly meant the point on the concentration scale where inhibition reaches its midpoint.

These data come from US11053219B2, “Substituted pyridines as TYK2 inhibitors” (FronThera U.S. Pharmaceuticals LLC, priority 2018, dated 2021).
